According to patent publication US8691775B2, “Use of drugs that activate P2Y receptors to enhance synaptogenesis” (Back Bay Scientific, LLC, priority 2010, dated 2014):

Columns and labels:
[1] = test system: PSD-95 protein in PC12 cells; assay: Level of PSD-95 in PC12 cells incubated with test compound; format: cell-based; details: incubation 2 or 4 days
Excerpt: Postsynaptic protein PSD-95 is a member of the membrane-associated guanylate kinase (MAGUK) family. The protein is almost exclusively located in the postsynaptic density of neurons and is involved in anchoring synaptic proteins. The inventor hypothesized that active agents that increase the level of the PSD-95 protein in cultured cells may be screened for their ability to activate P2Y receptors in animal models.
PC12 cells, a cell line ultimately derived from neural cells, are maintained in Minimal Essential Medium (MEM; Invitrogen, Carlsbad, Calif.) supplemented with 10% fetal bovine serum (FBS) at 37° C. Experimental incubations are for 2 or 4 days in medium with or without test compounds.
The activity of each test compound is assessed by determining the effect of each test compound on the level of PSD-95 in the cells.

brain dendritic spines = assay: Brain dendritic spines in laboratory animals injected intraperitoneally with test compound; format: in vivo; details: intraperitoneal injection after 6 weeks of diet
Excerpt: The laboratory animals are fed a food composition with or without a synthetic diet enriched with uridine, DHA and choline for 6 weeks, and are then intraperitoneally injected with a composition comprising the test compound.

[2] = rats; cited from earlier work

| Molecule | level of the PSD-95 protein in tissue culture [1] | level of brain dendritic spines in laboratory animals (brain dendritic spines) | uridine entering the liver via the portal vein metabolized in a single pass [2] |
| --- | --- | --- | --- |
| CCCCCCSc1nc(N)c2ncn([C@@H]3O[C@H](COP(=O)(O)O)[C@@H](O)[C@H]3O)c2n1 [2-(hexylthio) (HT)-AMP] | effective | effective |  |
| CSc1nc(N)c2ncn([C@@H]3O[C@H](COP(=O)(O)OP(=O)(O)OP(=O)(O)O)[C@@H](O)[C@H]3O)c2n1 [2-MeSATP] | effective | effective |  |
| CSc1nc(N)c2ncn([C@@H]3O[C@H](COP(=O)([O-])OP(=O)([O-])[O-])[C@@H](O)[C@H]3O)c2n1.[Na+].[Na+].[Na+] [2-Methylthio-ADP trisodium salt] | effective | effective |  |
| O=c1ccn([C@@H]2O[C@H](COP(=O)([O-])OP(=O)([O-])OP(=O)([O-])[O-])[C@@H](O)[C@H]2O)c(=S)[nH]1.[Na+].[Na+].[Na+].[Na+] [2-ThioUTP tetrasodium salt] | effective | effective |  |
| O=c1ccn([C@@H]2O[C@H](COP(=O)(O)OP(=O)(O)OP(=O)(O)O)[C@@H](O)[C@H]2O)c(=S)[nH]1 [2-thio-UTP] | effective | effective |  |
| N[C@@H]1[C@H](O)[C@@H](COP(=O)(O)OP(=O)(O)OP(=O)(O)O)O[C@H]1n1ccc(=O)[nH]c1=O [2′-deoxy-2′-amino-UTP] | effective | effective |  |
| Nc1ncnc2c1ncn2[C@@H]1O[C@H](COP(=O)(O)OP(=O)(O)O)[C@@H](O)[C@H]1O [ADP] | effective | effective |  |
| Nc1ncnc2c1ncn2[C@@H]1O[C@H](COP(=O)(O)OP(=O)([O-])OP(=O)([O-])O)[C@@H](O)[C@H]1O.[Na+].[Na+] [ATP disodium salt] | effective |  |  |
| Nc1ncnc2c1ncn2[C@@H]1O[C@H](COP(=O)(O)OP(=O)(O)OP(=O)(O)OP(=O)(O)OC[C@H]2O[C@@H](n3cnc4c(N)ncnc43)[C@H](O)[C@@H]2O)[C@@H](O)[C@H]1O [Ap4A] | effective | effective |  |
| Nc1ncnc2c1ncn2[C@@H]1O[C@H](COP(=O)(O)OP(=O)(O)OP(=O)(O)OP(=O)(O)OC[C@H]2O[C@@H](n3ccc(=O)[nH]c3=O)[C@H](O)[C@@H]2O)[C@@H](O)[C@H]1O [Ap4U] | effective | effective |  |
| Nc1ccn([C@@H]2O[C@H](COP(=O)(O)OP(=O)(O)OP(=O)(O)O)[C@@H](O)[C@H]2O)c(=O)n1 [CTP, cytidine-triphosphate] | effective | effective |  |
| Nc1nc2c(ncn2[C@@H]2O[C@H](COP(=O)(O)OP(=O)(O)OP(=O)(O)O)[C@@H](O)[C@H]2O)c(=O)[nH]1 [GTP] | effective | effective |  |
| O=c1ccn([C@@H]2O[C@H](COP(=O)(O)OP(=O)(O)OP(=O)(O)OP(=O)(O)OC[C@H]3O[C@@H](n4ccc(=O)[nH]c4=O)[C@H](O)[C@@H]3O)[C@@H](O)[C@H]2O)c(=O)[nH]1 [INS365] | effective | effective |  |
| O=c1[nH]cnc2c1ncn2[C@@H]1O[C@H](COP(=O)(O)OP(=O)(O)OP(=O)(O)O)[C@@H](O)[C@H]1O [ITP] | effective | effective |  |
| CSc1nc(N)c2ncn([C@H]3[C@H](O)[C@H](O)[C@]4(COP(=O)(O)OP(=O)(O)O)C[C@H]34)c2n1 [MRS 2365] | effective | effective |  |
| O=c1ccn([C@@H]2O[C@H](COP(=O)([O-])OP(=O)([O-])O[C@H]3O[C@H](CO)[C@@H](O)[C@H](O)[C@H]3O)[C@@H](O)[C@H]2O)c(=S)[nH]1.[Na+].[Na+] [MRS 2690] | effective | effective |  |
| N[C@@H]1[C@H](O)[C@@H](COP(=O)(O)OP(=O)(O)OP(=O)(O)O)O[C@H]1n1ccc(=O)[nH]c1=S [MRS 2698] | effective | effective |  |
| O=C(Cn1c(=O)ccn(C2OC(COP(=O)(O)OP(=O)(O)O)C(O)C2O)c1=O)c1ccccc1 (stereo not shown) [PSB 0474] | effective | effective |  |
| O=c1ccn([C@@H]2O[C@H](COP(=O)(O)OP(=O)(O)O)[C@@H](O)[C@H]2O)c(=O)[nH]1 [UDP, uridine 5′-diphosphate] | effective | effective |  |
| O=c1ccn([C@@H]2O[C@H](COP(=O)(O)OP(O)(O)=S)[C@@H](O)[C@H]2O)c(=O)[nH]1 [UDPβS, Uridine β-thiodiphosphate] | effective | effective |  |
| O=c1ccn([C@@H]2O[C@H](COP(=O)(O)OP(=O)(O)OP(=O)(O)O)[C@@H](O)[C@H]2O)c(=O)[nH]1 [UTP, uridine 5′-triphosphate] | effective | effective |  |
| O=c1ccn(C2OC(COP(=O)([O-])OP(=O)([O-])OP(=O)([O-])S)C(O)C2O)c(=O)[nH]1.[Na+].[Na+].[Na+] (stereo not shown) [UTPγS trisodium salt] | effective | effective |  |
| O=c1ccn([C@@H]2O[C@H](COP(=O)(O)OP(=O)(O)OP(O)(O)=S)[C@@H](O)[C@H]2O)c(=O)[nH]1 [UTPγS, uridine γ-thiophosphate] | effective | effective |  |
| Nc1ccn([C@H]2C[C@H](O)[C@@H](COP(=O)(O)OP(=O)(O)OP(=O)(O)OP(=O)(O)OC[C@H]3O[C@@H](n4ccc(=O)[nH]c4=O)[C@H](O)[C@@H]3O)O2)c(=O)n1 [denufosol] | effective | effective |  |
| O=c1ccn([C@@H]2O[C@H](CO)[C@@H](O)[C@H]2O)c(=O)[nH]1 [uridine] |  |  | more than 90% |
| Nc1ncnc2c1ncn2[C@@H]1O[C@H](COP(=O)(O)CP(=O)([O-])OP(=O)([O-])[O-])[C@@H](O)[C@H]1O.[Na+].[Na+].[Na+] [α,β-Methyleneadenosine 5′-triphosphate trisodium salt] | effective | effective |  |
| Nc1ncnc2c1ncn2[C@@H]1O[C@H](COP(=O)(O)CP(=O)(O)OP(=O)(O)O)[C@@H](O)[C@H]1O [α,β-methylene ATP] | effective | effective |  |
| BzATP triethylammonium salt | effective | effective |  |
| diadenosine pentaphosphate | effective | effective |  |
| diuridine triphosphate | effective | effective |  |
